Reference: US20040067952A1, “Method and composition for treatment of cancer” (priority 2001, published 2004)
Read-outs that look alike come from different tables or passages of the source.

How the values were obtained:
[1] = test system: Novikoff; assay: [3H]Thymidine incorporation assay, Novikoff; format: cell-based; settings: Rattus norvegicus, 5 days, read-out: % inhibition of [3H] thymidine incorporation (compared to control)
Protocol: (§1) Method: [^3H]Thymidine incorporation assay was employed to study the effect of clofazimine on cell proliferation. Here, adherent cells (5/000-10/000) were plated into 24-well Corning tissue culture dishes and exposed to culture medium (MEM 5% FBS) containing the vehicle or different concentrations of clofazimine (10^-9 to 10^-5 moles per liter). For Novikoff which is a detached rat cell line, 2000 cells were suspended in 2 ml of DMEM (5%FBS) and kept under the same condition as for attached cells. Media were replaced with fresh media on alternate days. […] The amount of radioactivity incorporated was determined using β-scintillation counter (18). Results are presented as the actual counts per minute against the concentration of the drug used in the culture media or as % inhibition (reduction in thymidine incorporation compared to controls). Treatment of different liver cancer cell lines, HUH-7, HepG2, SKHEP-1, Hep3-B (human cell lines) and Novikoff (rat cell line) with clofazimine led to dose-dependent inhibition of [3H]thymidine incorporation by these cells (Table 1 and FIG. 1). Values represent mean±s.e.m of % inhibition of [3H] thymidine incorporation (compared to control) for each cell line when treated for 5 days with different concentrations of clofazimine.

[2] = test system: LOVO; assay: [3H]thymidine incorporation, LOVO colorectal cancer cells; format: cell-based, human; settings: 5 day treatment
Protocol: FIG. 8: [3H]thymidine incorporation expressed as counts per minute in LOVO cells (colorectal cancer cell line) treated in culture for 5 days with different concentrations of clofazimine.
Method: [^3H]Thymidine incorporation assay was employed to study the effect of clofazimine on cell proliferation. Here, adherent cells (5/000-10/000) were plated into 24-well Corning tissue culture dishes and exposed to culture medium (MEM 5% FBS) containing the vehicle or different concentrations of clofazimine (10^−9 to 10^−5 moles per liter). For Novikoff which is a detached rat cell line, 2000 cells were suspended in 2 ml of DMEM (5%FBS) and kept under the same condition as for attached cells. Media were replaced with fresh media on alternate days. At the end of the treatment period (5-10 days), cell cultures were assayed for thymidine incorporation by the addition of 0.5 μCi of [3H]thymiydine to each well for the last 4 h of culture. The amount of radioactivity incorporated was determined using β-scintillation counter (18). Results are presented as the actual counts per minute against the concentration of the drug used in the culture media or as % inhibition (reduction in thymidine incorporation compared to controls). […]

[3] = test system: HUH-7; assay: [3H]Thymidine incorporation assay, HUH-7; format: cell-based; settings: Homo sapiens, 5 days, read-out: % inhibition of [3H] thymidine incorporation (compared to control)
Protocol: as §1

[4] = Solubility and stability in lipiodol; format: physicochemical
[5] = test system: HCC; settings: HCC patients, cited from earlier work
[6] = test system: HT-29; assay: [3H]thymidine incorporation, HT-29 colorectal cancer cells; format: cell-based; settings: Homo sapiens, 120 h; HT-29, 1 μM clofazimine, 5 day treatment period; read-out: inhibition of cell proliferation
[7] = reference 9; cited from earlier work
[8] = test system: HepG2; assay: [3H]Thymidine incorporation assay, HepG2; format: cell-based; settings: Homo sapiens, 5 days, read-out: % inhibition of [3H] thymidine incorporation (compared to control)
Protocol: as §1

[9] = test system: SKHEP-1; assay: [3H]Thymidine incorporation assay, SKHEP-1; format: cell-based; settings: Homo sapiens, SK-HEP1, 5 days, read-out: % inhibition of [3H] thymidine incorporation (compared to control)
Protocol: as §1

[10] = test system: Hep3-B; assay: [3H]Thymidine incorporation assay, Hep3-B; format: cell-based; settings: Homo sapiens, Hep3B, Hep3-β, 5 days, read-out: % inhibition of [3H] thymidine incorporation (compared to control)
Protocol: as §1

[11] = test system: C-170; assay: [3H]thymidine incorporation, C-170 colorectal cancer cells; format: cell-based; settings: Homo sapiens, C170, 120 h; C-170, 1 μM clofazimine, 5 day treatment period; read-out: inhibition of cell proliferation
Protocol: Method: [^3H]Thymidine incorporation assay was employed to study the effect of clofazimine on cell proliferation. Here, adherent cells (5/000-10/000) were plated into 24-well Corning tissue culture dishes and exposed to culture medium (MEM 5% FBS) containing the vehicle or different concentrations of clofazimine (10^−9 to 10^−5 moles per liter). For Novikoff which is a detached rat cell line, 2000 cells were suspended in 2 ml of DMEM (5%FBS) and kept under the same condition as for attached cells. Media were replaced with fresh media on alternate days. At the end of the treatment period (5-10 days), cell cultures were assayed for thymidine incorporation by the addition of 0.5 μCi of [3H]thymiydine to each well for the last 4 h of culture. The amount of radioactivity incorporated was determined using β-scintillation counter (18). Results are presented as the actual counts per minute against the concentration of the drug used in the culture media or as % inhibition (reduction in thymidine incorporation compared to controls). Treatment of different liver cancer cell lines, HUH-7, HepG2, SKHEP-1, Hep3-B (human cell lines) and Novikoff (rat cell line) with clofazimine led to dose-dependent inhibition of [3H]thymidine incorporation by these cells (Table 1 and FIG. 1).

For `CC(C)/N=c1/cc2n(-c3ccc(Cl)cc3)c3ccccc3nc-2cc1Nc1ccc(Cl)cc1` [clofazimine, 3-(4-chloroanilino)-10-(4-chlorophenyl)-2, 10-dihydro-2-(isopropylimino)-phenazine], the inhibition at 0.01 µM ([1]; clofazimine 0.01 μM) was 0%, the inhibition at 0.1 µM ([1]; clofazimine 0.1 μM) was 0% and the inhibition at 0.5 µM ([1]; clofazimine 0.5 μM) was 11.7 ± 3.3%. The inhibition at 1 µM ([1]; clofazimine 1.0 μM) was 18.9 ± 2.9%, the inhibition at 5 µM ([1]; clofazimine 5.0 μM) was 42.7 ± 4.1% and the “inhibition of proliferation as measured by [3H]thymidine incorporation” value [2] was “profound inhibition of proliferation”. For the same compound, the inhibition at 0.01 µM ([3]; HUH-7, clofazimine 0.01 μM) was 0%, the inhibition at 0.1 µM ([3]; HUH-7, clofazimine 0.1 μM) was 38.3 ± 7.2% and the inhibition at 0.5 µM ([3]; HUH-7, clofazimine 0.5 μM) was 51.1 ± 3.4%. The inhibition at 1 µM ([3]; HUH-7, clofazimine 1.0 μM) was 88.9 ± 1.1%, the inhibition at 5 µM ([3]; HUH-7, clofazimine 5.0 μM) was 96.7 ± 0.9% and the solubility in lipiodol [4] was “highly soluble”. For the same compound, the stability in lipiodol [4] was “stable”, the objective response ([5]; clofazimine alone, Falkson et al.) was “no objective response” and the objective response ([5]; oral clofazimine, 3/30, Ruff et al.) was 10%. The “stabilization of the disease” value ([5]; oral clofazimine, 13/30, for up to 20 months, Ruff et al.) was 43%, the inhibition at 1 µM [6] was > 70% and the “log p (octanol/water)” value [7] was 7.4. For the same compound, the inhibition at 0.01 µM ([8]; HepG2, clofazimine 0.01 μM) was 21 ± 1.9%, the inhibition at 0.1 µM ([8]; HepG2, clofazimine 0.1 μM) was 38.2 ± 2.2% and the inhibition at 0.5 µM ([8]; HepG2, clofazimine 0.5 μM) was 52.9 ± 4.7%. It also gave an inhibition at 1 µM ([8]; HepG2, clofazimine 1.0 μM) of 75.6 ± 2.7%, an inhibition at 5 µM ([8]; HepG2, clofazimine 5.0 μM) of 92.4 ± 1.9% and an inhibition at 0.01 µM ([9]; SKHEP-1, clofazimine 0.01 μM) of 30.3 ± 2.9%. For the same compound, the inhibition at 0.1 µM ([9]; SKHEP-1, clofazimine 0.1 μM) was 62.7 ± 7.1%, the inhibition at 0.5 µM ([9]; SKHEP-1, clofazimine 0.5 μM) was 69 ± 3.2% and the inhibition at 1 µM ([9]; SKHEP-1, clofazimine 1.0 μM) was 70.9 ± 2.1%. For the same compound, the inhibition at 5 µM ([9]; SKHEP-1, clofazimine 5.0 μM) was 97.1 ± 1.7%, the inhibition at 0.01 µM ([10]; clofazimine 0.01 μM) was 28.4 ± 7.4% and the inhibition at 0.1 µM ([10]; clofazimine 0.1 μM) was 62.3 ± 3.1%. For the same compound, the inhibition at 0.5 µM ([10]; clofazimine 0.5 μM) was 91.6 ± 1.1%, the inhibition at 1 µM ([10]; clofazimine 1.0 μM) was 94.3 ± 0.07% and the inhibition at 5 µM ([10]; clofazimine 5.0 μM) was 95.4 ± 1.4%. For the same compound, the inhibition at 1 µM [11] was > 70%.
